Assay results published in ChEMBL document CHEMBL4765385, “Synthesis and biological evaluation of β-lapachone-monastrol hybrids as potential anticancer agents” (Eur J Med Chem, 2020).
Active and inactive are the calls of the source. The calls are words filed in the database; no cut-off is given here.

Legend:
[1] = tested on: HepG2; assay: Antiproliferative activity against human HepG2 cells measured after 48 hrs by MTT assay; settings: HepG2, 48 h
[2] = tested on: NCI-H596; assay: Antiproliferative activity against human NCI-H596 cells measured after 48 hrs by MTT assay; format: functional, cell-based; settings: NCI-H596, 48 h
[3] = tested on: A549; assay: Antiproliferative activity against human A549 cells measured after 48 hrs in presence of NQO1 inhibitor dicoumarol by MTT assay; format: functional, cell-based; settings: A549, 48 h
[4] = tested on: L02; assay: Cytotoxicity against human L02 cells measured after 48 hrs by MTT assay; format: cell-based; settings: L02, 48 h
[5] = molecular target: NAD(P)H dehydrogenase [quinone] 1 (Homo sapiens, UniProt P15559); assay: Substrate activity at recombinant human C-terminal His-tagged NQO1 (1 to 274 residues) expressed in Escherichia coli assessed as metabolic rate by measuring NADPH oxidation per micromol protein at 10 mmol/L measured at 5 secs interval for 1 min by UV-Visible Spectrophotometric method; format: ADME
[6] = tested on: HepG2; assay: Induction of apoptosis in human HepG2 cells assessed as viable cells at 0.8 uM measured after 24 hrs by Annexin V-FITC/propidium iodide staining based flow cytometry (reference value: 94.73%); format: functional; settings: read-out: Activity
[7] = tested on: HepG2; assay: Induction of apoptosis in human HepG2 cells assessed as early apoptotic cells at 0.8 uM measured after 24 hrs by Annexin V-FITC/propidium iodide staining based flow cytometry (reference value: 2.65%); format: functional
[8] = tested on: HepG2; assay: Induction of apoptosis in human HepG2 cells assessed as late apoptotic cells at 0.8 uM measured after 24 hrs by Annexin V-FITC/propidium iodide staining based flow cytometry (reference value: 2.27%); format: functional
[9] = tested on: HepG2; assay: Induction of apoptosis in human HepG2 cells assessed as necrotic cells at 0.8 uM measured after 24 hrs by Annexin V-FITC/propidium iodide staining based flow cytometry (reference value: 0.35%); format: functional
[10] = tested on: HepG2; assay: Induction of apoptosis in human HepG2 cells assessed as viable cells at 1.6 uM measured after 24 hrs by Annexin V-FITC/propidium iodide staining based flow cytometry (reference value: 94.73%); format: functional; settings: read-out: Activity
[11] = tested on: HepG2; assay: Induction of apoptosis in human HepG2 cells assessed as early apoptotic cells at 1.6 uM measured after 24 hrs by Annexin V-FITC/propidium iodide staining based flow cytometry (reference value: 2.65%); format: functional
[12] = tested on: HepG2; assay: Induction of apoptosis in human HepG2 cells assessed as late apoptotic cells at 1.6 uM measured after 24 hrs by Annexin V-FITC/propidium iodide staining based flow cytometry (reference value: 2.27%); format: functional
[13] = tested on: HepG2; assay: Induction of apoptosis in human HepG2 cells assessed as necrotic cells at 1.6 uM measured after 24 hrs by Annexin V-FITC/propidium iodide staining based flow cytometry (reference value: 0.35%); format: functional
[14] = tested on: HepG2; assay: Induction of apoptosis in human HepG2 cells assessed as viable cells at 3.2 uM measured after 24 hrs by Annexin V-FITC/propidium iodide staining based flow cytometry (reference value: 94.73%); format: functional; settings: read-out: Activity
[15] = tested on: HepG2; assay: Induction of apoptosis in human HepG2 cells assessed as early apoptotic cells at 3.2 uM measured after 24 hrs by Annexin V-FITC/propidium iodide staining based flow cytometry (reference value: 2.65%); format: functional
[16] = tested on: HepG2; assay: Induction of apoptosis in human HepG2 cells assessed as late apoptotic cells at 3.2 uM measured after 24 hrs by Annexin V-FITC/propidium iodide staining based flow cytometry (reference value: 2.27%); format: functional
[17] = tested on: HepG2; assay: Induction of apoptosis in human HepG2 cells assessed as necrotic cells at 3.2 uM measured after 24 hrs by Annexin V-FITC/propidium iodide staining based flow cytometry (reference value: 0.35%); format: functional
[18] = tested on: NCI-H596; assay: Induction of apoptosis in human NCI-H596 cells assessed as viable cells at 1.6 uM measured after 24 hrs by Annexin V-FITC/propidium iodide staining based flow cytometry (reference value: 95.17%); format: functional; settings: read-out: Activity
[19] = tested on: NCI-H596; assay: Induction of apoptosis in human NCI-H596 cells assessed as early apoptotic cells at 1.6 uM measured after 24 hrs by Annexin V-FITC/propidium iodide staining based flow cytometry (reference value: 2.28%); format: functional
[20] = tested on: NCI-H596; assay: Induction of apoptosis in human NCI-H596 cells assessed as late apoptotic cells at 1.6 uM measured after 24 hrs by Annexin V-FITC/propidium iodide staining based flow cytometry (reference value: 1.91%); format: functional
[21] = tested on: NCI-H596; assay: Induction of apoptosis in human NCI-H596 cells assessed as necrotic cells at 1.6 uM measured after 24 hrs by Annexin V-FITC/propidium iodide staining based flow cytometry (reference value: 0.64%); format: functional
[22] = tested on: HepG2; assay: Induction of reactive oxygen species production in human HepG2 cells at 5 uM measured after 5 hrs by DCFH-DA staining based flow cytometry; format: functional, cell-based
[23] = tested on: NCI-H596; assay: Induction of reactive oxygen species production in human NCI-H596 cells at 5 uM measured after 5 hrs by DCFH-DA staining based flow cytometry; format: functional, cell-based
[24] = tested on: HepG2; assay: Antitumor activity against human HepG2 cells xenografted in BALB/c athymic nude mouse assessed as tumor growth inhibition at 20 mg/kg, iv administered at 2 days interval 19 days by caliper method relative to control; format: functional; settings: 456 h, time 19 day, read-out: TGI
[25] = Toxicity in human HepG2 cells xenografted BALB/c athymic nude mouse assessed as change in body weight at 20 mg/kg, iv administered at 2 days interval 19 days; format: organism-based; settings: in vivo, 456 h, time 19 day
[26] = tested on: HepG2; assay: Cell cycle arrest in human HepG2 cells assessed as accumulation at G0/G1 phase at 0.6 uM measured after 24 hrs by propidium iodide staining based flow cytometry analysis (reference value: 46.76%); format: functional
[27] = tested on: HepG2; assay: Cell cycle arrest in human HepG2 cells assessed as accumulation at G0/G1 phase at 1.2 uM measured after 24 hrs by propidium iodide staining based flow cytometry analysis (reference value: 46.76%); format: functional
[28] = tested on: HepG2; assay: Cell cycle arrest in human HepG2 cells assessed as accumulation at G0/G1 phase at 2.4 uM measured after 24 hrs by propidium iodide staining based flow cytometry analysis (reference value: 46.76%); format: functional
[29] = tested on: A549; assay: cells; settings: Homo sapiens, A549, 48 h
[30] = in vitro; settings: human, L02 cells and A549 cells

**Q.** With COc1ccc2c(c1)C(=O)C(=O)C1=C2NC(=S)NC1c1cccc(O)c1 (stereo not given) as the compound, how does the IC50 [1] read?
**A.** The IC50 was 1.6 µM.

**Q.** What about the IC50 [2] of the same compound?
**A.** The IC50 was 7.07 µM.

**Q.** What about the IC50 [3] of the same compound?
**A.** Its IC50 is 4.55 µM.

**Q.** And the IC50 [4]?
**A.** Its IC50 is 21 µM.

**Q.** And the Drug metabolism [5]?
**A.** The Drug metabolism was 1530 micromol/min/micromol protein.

**Q.** What about the viability at 0.8 µM [6] of the same compound?
**A.** Its viability at 0.8 µM is 83.7%.

**Q.** What about the Activity [7] of the same compound?
**A.** Its Activity is 7.21%.

**Q.** What about the Activity [8] of the same compound?
**A.** Its Activity is 8.52%.

**Q.** What about the Activity [9] of the same compound?
**A.** The Activity was 0.52%.

**Q.** And the viability at 1.6 µM [10]?
**A.** The viability at 1.6 µM was 78.1%.

**Q.** What about the Activity [11] of the same compound?
**A.** The Activity was 9.89%.

**Q.** What about the Activity [12] of the same compound?
**A.** The Activity was 11.48%.

**Q.** And the Activity [13]?
**A.** The Activity was 0.53%.

**Q.** What about the viability at 3.2 µM [14] of the same compound?
**A.** The viability at 3.2 µM was 71.1%.

**Q.** What about the Activity [15] of the same compound?
**A.** The Activity was 12.67%.

**Q.** What about the Activity [16] of the same compound?
**A.** Its Activity is 15.3%.

**Q.** What about the Activity [17] of the same compound?
**A.** The Activity was 0.95%.

**Q.** What about the viability at 1.6 µM [18] of the same compound?
**A.** The viability at 1.6 µM was 90.8%.

**Q.** And the Activity [19]?
**A.** The Activity was 4.22%.

**Q.** And the Activity [20]?
**A.** The Activity was 4.81%.

**Q.** What about the Activity [21] of the same compound?
**A.** The Activity was 0.14%.

**Q.** And the Activity [22]?
**A.** The Activity was “Active”.

**Q.** And the Activity [23]?
**A.** The Activity was “Active”.

**Q.** And the inhibition in vivo at 20 mg/kg [24]?
**A.** The inhibition in vivo at 20 mg/kg was 58.1%.

**Q.** What about the Activity [25] of the same compound?
**A.** Its Activity is “Non-Toxic”.

**Q.** What about the Activity [26] of the same compound?
**A.** Its Activity is 48.54%.

**Q.** And the Activity [27]?
**A.** The Activity was 49.6%.

**Q.** What about the Activity [28] of the same compound?
**A.** Its Activity is 53%.

**Q.** And the IC50 [29]?
**A.** Its IC50 is 0.72 µM.

**Q.** And the selectivity ratio [30]?
**A.** The selectivity ratio was 29.1.
